These results are taken from patent publication US7781465B2, “Therapeutic oxazolidinones and thiazolidinones” (Allergan, Inc., priority 2007, dated 2010).

Molecules are shown by their SMILES.

For data set [1], the target named is T1, EP2 (Homo sapiens, UniProt P43116). The data set is described as follows: EP2 flipr functional assay. The format is cell-based. From the text: (§1) U.S. Patent Application Publication No. 20070129552, incorporated by reference herein, describes the methods used to obtain the in vitro data in the table below.
T1 sequence (P43116 whole entry): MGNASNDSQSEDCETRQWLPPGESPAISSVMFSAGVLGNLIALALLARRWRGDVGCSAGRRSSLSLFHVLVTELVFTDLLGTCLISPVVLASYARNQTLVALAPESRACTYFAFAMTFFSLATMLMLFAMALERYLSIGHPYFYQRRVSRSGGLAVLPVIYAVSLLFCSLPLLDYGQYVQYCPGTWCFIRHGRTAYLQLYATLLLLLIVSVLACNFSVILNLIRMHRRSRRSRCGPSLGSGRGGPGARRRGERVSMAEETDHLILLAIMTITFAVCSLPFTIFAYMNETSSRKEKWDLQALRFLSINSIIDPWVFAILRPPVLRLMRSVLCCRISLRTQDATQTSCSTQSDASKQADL
In another data set the target is T2, hEP3A (Homo sapiens, UniProt P43115).
T2 sequence (P43115 1-390): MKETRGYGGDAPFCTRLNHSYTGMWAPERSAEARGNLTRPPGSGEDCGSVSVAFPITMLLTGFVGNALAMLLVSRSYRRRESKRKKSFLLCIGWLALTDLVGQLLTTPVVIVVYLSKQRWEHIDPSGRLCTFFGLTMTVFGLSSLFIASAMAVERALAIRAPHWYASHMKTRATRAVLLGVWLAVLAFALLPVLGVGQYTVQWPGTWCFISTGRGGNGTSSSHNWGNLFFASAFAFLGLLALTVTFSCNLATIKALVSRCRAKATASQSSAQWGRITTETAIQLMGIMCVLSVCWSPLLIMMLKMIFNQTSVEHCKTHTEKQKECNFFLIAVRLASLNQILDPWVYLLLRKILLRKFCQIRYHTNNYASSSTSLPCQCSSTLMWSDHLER
Nature of the data set: Other receptors functional assay, hEP3A. The format is cell-based.
From the text: as §1

Data set [2] concerns the target T3, EP4 (Homo sapiens, UniProt P35408). Nature of the data set: EP4 binding (Ki).
From the text: as §1

The target in another data set is T4, hDP (Homo sapiens, UniProt Q13258).
T4 sequence (Q13258 1-359): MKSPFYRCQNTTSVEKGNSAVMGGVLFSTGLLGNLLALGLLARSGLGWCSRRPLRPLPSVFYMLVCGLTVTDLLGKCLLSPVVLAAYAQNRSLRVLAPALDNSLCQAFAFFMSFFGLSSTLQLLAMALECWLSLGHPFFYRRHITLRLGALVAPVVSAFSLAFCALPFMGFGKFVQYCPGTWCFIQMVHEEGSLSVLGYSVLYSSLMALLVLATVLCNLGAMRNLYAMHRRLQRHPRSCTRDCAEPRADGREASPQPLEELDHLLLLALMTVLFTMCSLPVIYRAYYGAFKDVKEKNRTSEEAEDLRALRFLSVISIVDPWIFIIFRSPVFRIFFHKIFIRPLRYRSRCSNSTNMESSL
Nature of the data set: Other receptors functional assay, hDP. The format is cell-based.
From the text: as §1

Data set [3] addresses T1, EP2. The data set is described as follows: EP2 binding (Ki).
From the text: as §1

The target in data set [4] is T3, EP4. Nature of the data set: EP4 flipr functional assay. The format is cell-based.
From the text: as §1

The subject of data set [5] is normotensive dogs. The data set is described as follows: Intraocular pressure in normotensive dogs. The format is in vivo, dog. As to conditions: 0.003%, once daily for 5 days, at 54 h. As to the method:
(§2) U.S. Pat. No. 7,183,324 describes the methods used to obtain the in vitro results presented below.
(§3) Isopropyl 5-(3-((R)-3-(4-((S)-1-hydroxyhexyl)phenyl)-4-oxooxazolidin-2-yl)propyl)thiophene-2-carboxylate (12j) was tested in normotensive dogs at 0.003%, dosing once daily for 5 days. The maximum intraocular pressure (IOP) decrease from baseline was 5.4 mmHg (36%) at 54 h; the maximum ocular surface hyperemia (OSH) score was 1.75 at 50 h.

For data set [6], the system named is normotensive dogs. Nature of the data set: Ocular surface hyperemia in normotensive dogs. The format is in vivo, dog. To be noted: 0.003%, once daily for 5 days, at 50 h. How it is done: as §2, §3

Broadly, the EC50 is the concentration that produces a half-maximal response. In general, Ki refers to a measure of affinity in units of concentration, obtained from inhibition or displacement. A high value points to a looser hold on the target.

T3 sequence (P35408 whole entry): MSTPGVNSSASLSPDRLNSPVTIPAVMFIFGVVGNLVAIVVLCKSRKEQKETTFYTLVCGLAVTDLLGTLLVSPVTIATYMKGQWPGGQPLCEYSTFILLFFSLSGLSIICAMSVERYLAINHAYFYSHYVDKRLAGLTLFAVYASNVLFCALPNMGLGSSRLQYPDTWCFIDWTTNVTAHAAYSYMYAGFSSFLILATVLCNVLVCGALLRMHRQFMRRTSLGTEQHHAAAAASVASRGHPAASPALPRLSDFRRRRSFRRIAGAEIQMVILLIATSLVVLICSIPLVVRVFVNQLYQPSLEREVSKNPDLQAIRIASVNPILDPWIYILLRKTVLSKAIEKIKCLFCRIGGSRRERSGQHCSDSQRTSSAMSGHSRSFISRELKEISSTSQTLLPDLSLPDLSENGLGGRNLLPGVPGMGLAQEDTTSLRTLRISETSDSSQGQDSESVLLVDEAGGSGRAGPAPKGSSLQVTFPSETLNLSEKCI

Turning to `CCCCC[C@H](O)c1ccc(N2C(=O)CO[C@H]2CCCc2ccc(C(=O)O)s2)cc1` (single isomer, unassigned) [Example 3], the results for the concentration for a half-maximal effect (EC50) on EP2 [1], on hEP3A and on hDP were 82 nM, 268 nM and 1970 nM, respectively. The Ki at EP4 [2] was over 10000 nM; on EP2 [3], 90 nM.
`CCCCC[C@H](O)c1ccc(N2C(=O)CO[C@@H]2CCCc2ccc(C(=O)O)s2)cc1` (single isomer, unassigned) [Example 4]: the EC50 at EP2 [1] came out at 1.2 nM; on hEP3A it was 4 nM; at hDP it was 73 nM. In addition, the Ki on EP4 [2] was over 10000 nM; at EP2 [3], 7 nM.
Regarding `CCCCCC(O)c1ccc(N2C(=O)CSC2CCCc2ccc(C(=O)O)s2)cc1` (stereo not drawn) [Example 1, 5-(3-(3-(4-(1-hydroxyhexyl)phenyl)-4-oxo-thiazolidin-2-yl)propyl)thiophene-2-carboxylic acid], the concentration for a half-maximal effect (EC50) is 4400 nM at EP2 [1], 8320 nM on hEP3A and over 10000 nM on EP4 [4]. For the same compound, the Ki at EP4 [2] amounted to 1460 nM; on EP2 [3], 17500 nM.
Turning to `CCCCCC(O)c1ccc(N2C(=O)COC2CCCc2ccc(C(=O)O)s2)cc1` (stereo not drawn) [Example 2, 5-(3-(3-(4-(1-hydroxyhexyl)phenyl)-4-oxo-oxazolidin-2-yl)propyl)thiophene-2-carboxylic acid], the concentration giving a half-maximal response (EC50) at EP2 [1] turned out to be 8 nM; on hEP3A, 11 nM; on hDP it was 213 nM. The values for the inhibition constant (Ki) at EP4 [2] and on EP2 [3] were over 10000 nM and 14 nM, respectively.
As to `CCCCCCc1ccc(N2C(=O)COC2CCCc2ccc(C(=O)O)s2)cc1` (stereo not drawn) [Example 8, 5-(3-(3-(4-hexylphenyl)-4-oxooxazolidin-2-yl)propyl)thiophene-2-carboxylic acid], the 50% effective concentration (EC50) was 37 nM at EP2 [1], 237 nM on hEP3A, 656 nM on hDP and 12600 nM at EP4 [4]. For the same compound, the Ki worked out at 2130 nM at EP4 [2] and 3 nM at EP2 [3].
On to `O=C(O)c1ccc(CCCC2OCC(=O)N2c2ccccc2)s1` (stereo not drawn) [Example 9, 5-(3-(4-oxo-3-phenyloxazolidin-2-yl)propyl)thiophene-2-carboxylic acid], for which the EC50 on EP2 [1] was 3080 nM; on hDP, over 10000 nM. Also, the inhibition constant (Ki) at EP4 [2] was over 10000 nM; at EP2 [3], 680 nM.
On to `CCCCC[C@H](O)c1ccc(N2C(=O)CO[C@@H]2CCCc2ccc(C(=O)OC(C)C)s2)cc1` [Example 12j, Isopropyl 5-(3-((R)-3-(4-((S)-1-hydroxyhexyl)phenyl)-4-oxooxazolidin-2-yl)propyl)thiophene-2-carboxylate], for which, in the data set on normotensive dogs [5], the “maximum intraocular pressure (IOP) decrease from baseline” value worked out at 5.4 mmHg and the “maximum intraocular pressure (IOP) decrease from baseline, percent” value is 36%. The “maximum ocular surface hyperemia (OSH) score” value in the data set with normotensive dogs [6] came out at 1.75.
